Measured values published in PMC9032381 (Diagnostics, 2022).
Where “and” joins values, the source holds several entries; their conditions need not be identical. Equal values may be shown once. Read-outs that look alike come from different tables or passages of the source. One block for each compound: values may come before it.

[1] = measured, listed as 18F-Afatinib

- Active metabolite exposure (cited): 10 % AUC
Structure (SMILES): C=CC(=O)Nc1cc(Nc2nccc(-c3c[nH]c4ccccc34)n2)c(OC)cc1N(C)CCN(C)C [AZ5104]
- Active metabolite potency relative to osimertinib (OSI) (cited): higher

- Active metabolite exposure (cited): 10 % AUC
Structure (SMILES): C=CC(=O)Nc1cc(Nc2nccc(-c3cn(C)c4ccccc34)n2)c(OC)cc1N(C)CCNC [AZ7550]
- Active metabolite potency relative to osimertinib (OSI) (cited): as OSI

- Active metabolite exposure (cited): 10 % AUC
Structure (SMILES): C#Cc1cccc(Nc2ncnc3cc(OCCO)c(OCCOC)cc23)c1 [OSI413]

Further lines, the compound ahead of its results:

Structure (SMILES): CN(C)C/C=C/C(=O)Nc1cc2c(Nc3ccc(F)c(Cl)c3)ncnc2cc1O[C@H]1CCOC1 [Afatinib, reference compound]
- AUC dose normalized (cited): 23 µM·h
- Active metabolites (cited): None
- Ka (cited): 0.252 h⁻¹
- Strength of basicity (cited): Strong
- Target Ctrough (cited): 50 nM
- Time to Css (cited): 8 days

Structure (SMILES): C#Cc1cccc(Nc2ncnc3cc(OCCOC)c(OCCOC)cc23)c1 [Erlotinib, reference compound]
- AUC dose normalized (cited): 207 µM·h
- Cmin at Css (cited): 2567 nM
- Ka (cited): 0.949 h⁻¹
- Metabolism Liver (cited): ~98%
- Renal extraction, unchanged (cited): < 2%
- Strength of basicity (cited): Weak
- Target Ctrough (cited): 1271 nM
- Time to Css (cited): 7 to 8 days

Structure (SMILES): C#Cc1cccc(Nc2ncnc3cc(OCCOC)c(OCCO)cc23)c1 [OSI-420]
- Active metabolite exposure (cited): 10 % AUC

Structure (SMILES): C=CC(=O)Nc1cc(Nc2nccc(-c3cn(C)c4ccccc34)n2)c(OC)cc1N(C)CCN(C)C [Osimertinib, reference compound]
- AUC dose normalized (cited): 75 µM·h
- Cmin at Css (cited): 417 nM
- Metabolism Liver (cited): ~99%
- Renal extraction, unchanged (cited): 2%
- Strength of basicity (cited): Strong
- Target Ctrough (cited): 332 nM
- Time to Css (cited): 15 days

Structure (SMILES): C=CC(=O)Nc1cc(Nc2nccc(-c3cn([11CH3])c4ccccc34)n2)c(OC)cc1N(C)CCN(C)C [^11C-osimertinib]
- parent fraction, initial decline (drop to) (measured): 50%
- parent fraction, plateau (measured): 28–29%

Structure (SMILES): CN(C)C/C=C/C(=O)Nc1cc2c(Nc3ccc([18F])c(Cl)c3)ncnc2cc1OC1CCOC1 (stereo not drawn) [^18F-afatinib]
- SUV Aorta (blood SUV) (measured): 0.5 (±0.1)
- SUV Brain (measured): 0.04 (0.01)
- SUV Kidney (measured): 3.5 (0.7)
- SUV Liver (measured): 11.8 (2.2)
- SUV Lung (measured): 1.3 (0.5)
- SUV Spleen (measured): 6.8 (1.0)
- SUV Vertebra (measured): 2.4 (0.8)
- SUV-AUC Liver (measured): 731.5 (87.4) MBq/mL and seconds
- SUV-AUC Lung (measured): 98.5 (16.5) MBq/mL and seconds
- TBR Brain (measured): 0.08 (0.03)
- TBR Kidney (measured): 6.9 (1.8)
- TBR Liver (measured): 23.3 (6.2)
- TBR Lung (measured): 2.5 (1.2)
- TBR Spleen (measured): 13.2 (2.3)
- TBR Vertebra (measured): 4.8 (2.0)
- TBR-AUC Liver (measured): 747.7 (426.3) TBR and seconds
- TBR-AUC Lung (measured): 90.9 (37.9) TBR and seconds
- parent fraction (measured): 70% and 35%
- SUV Aorta (blood SUV) [1]: 0.5 (0.1)
- SUV Tumor [1]: 1.8 (1.3) and 1.6 (0.1)
- TBR Tumor [1]: 3.6 (2.4) and 3.3 (1.0)
- TBR-AUC Tumor [1]: 150.7 (9.1) TBR and seconds and 113.0 (44.8) TBR
